Assays:
Experiment in all cases: relative viability (nuclei count vs DMSO), 5 days (fraction); higher = more cells survive
CUDC-101 + Luminespib = compound: C#Cc1cccc(Nc2ncnc3cc(OC)c(OCCCCCCC(=O)NO)cc23)c1 [CUDC-101] + CCNC(=O)c1noc(-c2cc(C(C)C)c(O)cc2O)c1-c1ccc(CN2CCOCC2)cc1 [Luminespib] (partner 0.01 µM)
Summary of the method: (§1)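 A single step with final 0.05% Triton X-100, 1% formaldehyde and 1 ug/ml Hoechst fixed the cells and stained nuclei 5 days after treatment. Lung cancer cell lines in 1536-well plates had been treated by pin tool the day after seeding with one drug alone or a fixed anchor-drug dose plus five library-drug doses (not always all listed) in √10 steps, and nuclei were counted on 4× images. Relative viability is the ratio of nuclei in treated wells to nuclei in vehicle wells, taken as the median of duplicate plates.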

CUDC-101 + Phenformin = compound: C#Cc1cccc(Nc2ncnc3cc(OC)c(OCCCCCCC(=O)NO)cc23)c1 [CUDC-101] + N=C(N)NC(=N)NCCc1ccccc1 [Phenformin] (partner 250 µM)
Summary of the method: as §1

Vandetanib + Palbociclib = compound: COc1cc2/c(=N/c3ccc(Br)cc3F)nc[nH]c2cc1OCC1CCN(C)CC1 [Vandetanib] + CC(=O)c1c(C)c2cnc(Nc3ccc(N4CCNCC4)cn3)nc2n(C2CCCC2)c1=O [Palbociclib] (partner 0.5 µM)
Summary of the method: as §1

Vandetanib + Dasatinib = compound: COc1cc2/c(=N/c3ccc(Br)cc3F)nc[nH]c2cc1OCC1CCN(C)CC1 [Vandetanib] + Cc1nc(Nc2ncc(C(=O)Nc3c(C)cccc3Cl)s2)cc(N2CCN(CCO)CC2)n1 [Dasatinib] (partner 0.075 µM)
Summary of the method: as §1

Cell Line | relative viability (CUDC-101 + Luminespib; first compound 0.01 µM) | relative viability (CUDC-101 + Luminespib; first compound 0.03162 µM) | relative viability (CUDC-101 + Luminespib; first compound 0.1 µM) | relative viability (CUDC-101 + Luminespib; first compound 0.3162 µM) | relative viability (CUDC-101 + Luminespib; first compound 1 µM) | relative viability (CUDC-101 + Phenformin; first compound 0.01 µM) | relative viability (CUDC-101 + Phenformin; first compound 0.03162 µM) | relative viability (CUDC-101 + Phenformin; first compound 0.1 µM) | relative viability (CUDC-101 + Phenformin; first compound 0.3162 µM) | relative viability (CUDC-101 + Phenformin; first compound 1 µM) | relative viability (Vandetanib + Palbociclib; first compound 0.02 µM) | relative viability (Vandetanib + Palbociclib; first compound 0.06325 µM) | relative viability (Vandetanib + Palbociclib; first compound 0.2 µM) | relative viability (Vandetanib + Palbociclib; first compound 0.6325 µM) | relative viability (Vandetanib + Palbociclib; first compound 2 µM) | relative viability (Vandetanib + Dasatinib; first compound 0.02 µM) | relative viability (Vandetanib + Dasatinib; first compound 0.06325 µM) | relative viability (Vandetanib + Dasatinib; first compound 0.2 µM) | relative viability (Vandetanib + Dasatinib; first compound 0.6325 µM) | relative viability (Vandetanib + Dasatinib; first compound 2 µM)
EKVX | 0.916 | 0.677 | 0.749 | 0.982 | 0.81 | 0.255 | 0.229 | 0.211 | 0.244 | 0.222 | 0.415 | 0.396 | 0.345 | 0.291 | 0.176 | 0.547 | 0.566 | 0.498 | 0.602 | 0.374
EMC-BAC-2 | 1.29 | 1.08 | 1.2 | 1.22 | 0.973 | 0.616 | 0.472 | 0.549 | 0.487 | 0.365 | 0.533 | 0.499 | 0.546 | 0.515 | 0.502 | 0.332 | 0.312 | 0.327 | 0.295 | 0.3
EPLC-272H | 0.141 | 0.554 | 0.598 | 0.269 | 0.257 | 0.279 | 0.297 | 0.201 | 0.136 | 0.114 | 0.329 | 0.321 | 0.329 | 0.282 | 0.311 | 0.301 |  | 0.415 | 0.352 | 0.321
H3255 | 0.845 | 0.648 |  | 0.541 | 0.439 | 0.367 | 0.322 |  | 0.31 | 0.166 | 0.316 | 0.311 | 0.32 | 0.298 | 0.245 | 0.364 | 0.358 | 0.325 | 0.252 | 0.264
HARA | 0.465 | 0.682 | 0.616 | 0.311 | 0.185 | 0.4 | 0.397 | 0.476 | 0.501 | 0.248 | 0.261 | 0.224 | 0.225 | 0.293 | 0.221 | 0.305 | 0.264 | 0.239 | 0.237 | 0.303
HCC-15 | 0.169 | 0.279 | 0.299 | 0.559 | 0.596 | 0.434 | 0.432 | 0.521 | 0.556 | 0.376 | 0.647 | 0.713 | 0.646 | 0.75 | 0.721 | 0.583 | 0.572 | 0.632 | 0.639 | 0.606
HCC-44 | 0.947 | 0.909 | 1.03 | 1.03 | 1.06 | 0.163 | 0.185 | 0.22 | 0.185 | 0.139 | 0.91 | 0.914 | 0.967 | 0.979 | 0.961 |  |  |  |  | 
HCC-78 |  |  |  |  |  | 0.709 | 0.705 | 0.675 | 0.602 | 0.246 | 0.443 | 0.485 | 0.479 | 0.518 | 0.446 | 0.428 | 0.286 | 0.362 | 0.451 | 0.336
